Data as given in patent publication US20070042976A1, “Method of treating cosmetic and dermatologic conditions by a demethylating agent” (priority 2005, published 2007).
≈ marks a conversion by molar mass, not a printed value. Marks after values point to notes of the source that are not given here.

Key:
[1] = system: normal human fibroblasts; assay: Human fibroblasts collagen synthesis assay (14C-proline incorporation, collagenase-labile counts); format: cell-based; parameters: reduction of the amount of collagen synthesized: dose or concentration left out as unconfirmed; conditions: for Collagen (DPM/cell) with TGF β 1: with TGF β 1 (10 ng/ml), control 9945 +/− 602; for Collagen (DPM/cell) without TGF β 1: control 5267 +/− 1079
Protocol: Human Fibroblasts Collagen Synthesis Assay
Human fibroblasts were grown in DMEM (10% FCS) in 24-wells plates to approximately 50% confluence. 5-azacytidine (from Sigma) was added for 5 hrs of 37° C. TGF-β1 was added (10 ng/ml) for 2 hours (hrs) at 37° C. Then, L-[U-14C]-proline solution (specific radioactivity 269 mCi/mmol) was added (1.25 μCi/well) and incubated for 20 hrs at 37° C. The cells were then washed with 5 mM proline in PBS and 5 mM proline in 70% methanol and incubated at […] for 20 hrs. […] After 20 hrs, the collagenase treated cultures were centrifuged and a new collagenase solution was added to the cells. The cultures were incubated with the enzyme for an additional 20 hrs. Proline incorporated into protein and released by collagenase treatment is defined as “collagen”. Incorporation of labeled proline into collagen was evaluated by scintillation counting of supernatants. In parallel, the cultures were checked for vitality using a 3-(4, 5-dimethylthiazol-2-yl)-2, 5-diphenyltetrazolium bromide (MTT) reaction. Each concentration of 5-azacytidine was analyzed (n=6), and the effect of 5-azacytidine on collagen synthesis were expressed as averaged DPM per number of viable cells +/− standard deviation.
Human fibroblasts were grown to about 50% confluence and exposed to medium with or without TGF β.

[2] = system: Human squamous cell carcinoma line (SCL-1) cells; assay: Cell death in human squamous cell carcinoma line with or without UVB (MTT); format: cell-based; conditions: for % Cell Death with UV: UV alone 22 +/− 0.1
Protocol: Determination of Cell Death in Response to 5-azacytidine in Human Squamous Cell Carcinoma Line
Human squamous cell carcinoma line (SCL-1) cells were grown in DMEM medium with 10% FCS. 5-azacytidine was added at the indicated concentrations after the cells reached 100% confluence. The cultures were incubated for 24 hrs at 37° C. and then washed in Hepes buffer (pH=7.4) with isotonic salt and exposed to UVB radiation. Cell death was determined using MTT [3-(4, 5-dimethylthiazol-2-yl)-2, 5-diphenyltetrazolium bromide] kit obtained from Sigma. Each concentration of the drug was tested in six wells and the degree of inhibition (vs. controls of untreated cultures) was given as an average (% cell death +/−standard deviation).
The human squamous cells (SCL-1) were grown to about 50% confluence. The cultures were treated with minimal amount of 5-azacytidine, UV radiation, or the combination and cell viability was quantified. […] The exposure of the cells to UV, in the absence of the drug induced a cytotoxic effect in about 22% of the cells. Together, the combination of both UV and 5-azacytidine induced cell death at about 50% of the cancer cells.

[3] = system: human fibroblasts; assay: Proliferation of human fibroblasts in culture; format: cell-based; conditions: previously found by applicant
[4] = system: collagen type IV gene; conditions: transformed rat liver cells; cited from earlier work
[5] = system: alpha 2 collagen gene; conditions: teratocarcinoma F9 cells; cited from earlier work
[6] = system: Pro collagen alpha I gene; conditions: human rhabdomyosarcoma cells; cited from earlier work
[7] = system: alpha 2 collagen gene; conditions: resistant cells such as HaCaT, Hela and HepG2; cited from earlier work
[8] = system: collagen gene expression; conditions: human cancer cells, including fibrosarcomas and breast carcinoma; cited from earlier work
[9] = system: pieces of human skin; assay: Incorporation of labeled proline into pieces of human skin (collagen biosynthesis, skin organ culture); conditions: for Collagen (DPM/mg tissue): control 333
[10] = Azacytidine 4.8 ug/ml, listed as Azacytidine

SMILES: Nc1ncn([C@@H]2O[C@H](CO)[C@@H](O)[C@H]2O)c(=O)n1 [5-azacytidine]
- Collagen (DPM/cell) with TGF β 1 ([1]; Azacytidine 1 μg/ml): 8259 +/− 482 DPM/cell
- Collagen (DPM/cell) without TGF β 1 ([1]; Azacytidine 1 μg/ml): 5306 +/− 717 DPM/cell
- Collagen (DPM/cell) with TGF β 1 ([1]; Azacytidine 5 μg/ml): 6801 +/− 1359* DPM/cell
- Collagen (DPM/cell) without TGF β 1 ([1]; Azacytidine 5 μg/ml): 4015 +/− 706* DPM/cell
- Collagen (DPM/cell) with TGF β 1 ([1]; Azacytidine 25 μg/ml): 5183 +/− 816* DPM/cell
- Collagen (DPM/cell) without TGF β 1 ([1]; Azacytidine 25 μg/ml): 2323 +/− 139* DPM/cell
- IC50 ([1]; Fibroblast, stated as similar to the IC50 in human skin, read-out: IC50 of collagen biosynthesis in cultured human fibroblasts): ~25 µg/mL (≈ 102 µM)
- effect on TGF β upregulation of collagen biosynthesis ([1]; TGF β stimulated fibroblasts): inhibited in a dose dependent manner the ability of TGF β to upregulate collagen biosynthesis
- reduction of the amount of collagen synthesized ([1]; concentration of about 25, basal (without TGF β)): approximately 55%
- effect on basal collagen produced ([1]; without TGF β): inhibited the collagen produced in a dose dependent manner
- % Cell Death with UV ([2]; Azacytidine 0.53 ug/ml): 19 +/− 0.5%
- % Cell Death without UVB ([2]; Azacytidine 0.53 ug/ml): 2 +/− 0.7* %
- % Cell Death with UV ([2]; Azacytidine 1.6 ug/ml): 21 +/− 0.6%
- % Cell Death without UVB ([2]; Azacytidine 1.6 ug/ml): 5 +/− 0.3* %
- % Cell Death with UV ([2]; Azacytidine 4.8 ug/ml): about 50%
- % Cell Death with UV [2, 10]: 50 +/− 0.2%
- % Cell Death without UVB ([2]; Azacytidine 4.8 ug/ml): about 29%
- % Cell Death without UVB [2, 10]: 29 +/− 13* %
- IC50 ([2]; Homo sapiens, SCL-1, 5-Azacytidine alone (no UV)): 11 µg/mL
- combined effect of photo damage and drug on viability ([2]; UV plus 5-azacytidine): additive effect
- effect on proliferation of fibroblasts in culture [3]: inhibits the proliferation
- effect on transcription of collagen type IV gene [4]: increases transcription of the collagen type IV gene
- effect on transcription of alpha 2 collagen gene [5]: induces transcription of alpha 2 collagen gene
- effect on transcription of Pro collagen alpha I gene [6]: transcriptional activation of the Pro collagen alpha I gene
- effect on alpha 2 collagen gene [7]: reactivated
- effect on collagen gene expression [8]: increased or reactivated collagen gene expression
- effect on collagen biosynthesis by human skin [9]: inhibited collagen biosynthesis in a dose dependent manner
- % Inhibition of collagen ([9]; Azacytidine 6.25 ug/ml): 40%
- Collagen (DPM/mg tissue) ([9]; Azacytidine 6.25 ug/ml): 199 +/− 34* DPM/mg tissue
- % Inhibition of collagen ([9]; Azacytidine 25 ug/ml): 48%
- Collagen (DPM/mg tissue) ([9]; Azacytidine 25 ug/ml): 174 +/− 53* DPM/mg tissue
- % Inhibition of collagen ([9]; Azacytidine 100 ug/ml): 72%
- Collagen (DPM/mg tissue) ([9]; Azacytidine 100 ug/ml): 92 +/− 13* DPM/mg tissue
- IC50 ([9]; Homo sapiens, read-out: IC50 of collagen biosynthesis in human skin): ~25 µg/mL (≈ 102 µM)
